Data published in patent publication US10206937B2, “Boronic acid derivatives and therapeutic uses thereof” (Qpex Biopharma, Inc., priority 2014, dated 2019).

System: strains of Enterobacteriaceae producing various carbapenemases (class A, D and B; 104 strains)
Test: Antibiotics potentiation by Compound 27 (MIC; meropenem, doripenem, ertapenem, cefepime)
Assay type: cell-based
Conditions: + 27 = with Compound 27 at fixed 4 μg/ml

For `C[C@@H](O)[C@H]1C(=O)N2C(C(=O)O)=C(S[C@@H]3CN[C@H](CNS(N)(=O)=O)C3)[C@H](C)[C@H]12` [D], the MIC (strain KP1081 Klebsiella pneumoniae (NDM-1, TEM-1, SHV-11, CMY-6, CTX-M-15)) was “Z (MIC of greater than 10 μg/mL)”, the MIC (strain KP1082 Klebsiella pneumoniae (KPC-2, SHV-1)) was “Y (MIC of 1 μg/mL to 10 μg/mL)” and the MIC (strain KP1083 Klebsiella pneumoniae (KPC-3, SHV-1, TEM-1)) was “Y (MIC of 1 μg/mL to 10 μg/mL)”. For the same molecule, the MIC (strain KP1084 Klebsiella pneumoniae (KPC-3, SHV-11, TEM-1)) was “Z (MIC of greater than 10 μg/mL)”, the MIC (strain KP1086 Klebsiella pneumoniae (OXA-48, CTX-M-15, TEM, SHV)) was “Z (MIC of greater than 10 μg/mL)” and the MIC (strain KP1087 Klebsiella pneumoniae (KPC-2, CTX-M-15, SHV-11, TEM-1)) was “Z (MIC of greater than 10 μg/mL)”. For the same molecule, the MIC (strain KP1088 Klebsiella pneumoniae (KPC-3, SHV-11, TEM-1)) was “Y (MIC of 1 μg/mL to 10 μg/mL)”, the MIC (strain KP1089 Klebsiella pneumonias (OXA-181, CTX-M-15, TEM, SHV)) was “Y (MIC of 1 μg/mL to 10 μg/mL)” and the MIC (strain KP1095 Klebsiella pneumoniae (KPC-2 TEM-1 SHV-1)) was “Y (MIC of 1 μg/mL to 10 μg/mL)”. For the same molecule, the MIC (strain KP1096 Klebsiella pneumoniae (KPC-2 TEM-181 SHV-11)) was “Y (MIC of 1 μg/mL to 10 μg/mL)”, the MIC (strain KP1097 Klebsiella pneumonias (IMP-1)) was “Z (MIC of greater than 10 μg/mL)” and the MIC (strain KP1098 Klebsiella pneumoniae (IMP-26)) was “Z (MIC of greater than 10 μg/mL)”. The MIC (strain KP1104 Klebsiella pneumoniae (KPC TEM)) was “Z (MIC of greater than 10 μg/mL)”, the MIC (strain KP1105 Klebsiella pneumoniae (KPC TEM SHV)) was “Y (MIC of 1 μg/mL to 10 μg/mL)” and the MIC (strain KP1159 Klebsiella pneumoniae (SHV-1(2b); CTX-M-15; IMP-4)) was “Z (MIC of greater than 10 μg/mL)”. For the same molecule, the MIC (strain KP1160 Klebsiella pneumoniae (SHV-28(2be); CTX-M-15; IMP-26)) was “Z (MIC of greater than 10 μg/mL)”, the MIC (strain KP1161 Klebsiella pneumoniae (NDM-1)) was “Z (MIC of greater than 10 μg/mL)” and the MIC (strain KP1164 Klebsiella pneumoniae (SHV-12(2be); VIM-1)) was “Z (MIC of greater than 10 μg/mL)”. The MIC (strain KP1165 Klebsiella pneumoniae (SHV-11(2b); CTX-M-15; VIM-27)) was “Z (MIC of greater than 10 μg/mL)”, the MIC (strain KP1166 Klebsiella pneumoniae (SHV-5(2be); VIM-26)) was “Z (MIC of greater than 10 μg/mL)” and the MIC (strain KP1167 Klebsiella pneumoniae (SHV-12(2be); VIM-1)) was “X (MIC of less than 1 μg/mL)”. The MIC (strain KP1169 Klebsiella pneumoniae (SHV-11(2b); VIM-1)) was “Z (MIC of greater than 10 μg/mL)”, the MIC (strain KP1170 Klebsiella pneumoniae (SHV-11(2b); CTX-M-15; NDM-1)) was “Z (MIC of greater than 10 μg/mL)” and the MIC (strain KP1172 Klebsiella pneumoniae (SHV-31(2be); DHA-1; VIM-1)) was “Z (MIC of greater than 10 μg/mL)”. For the same molecule, the MIC (strain KP1173 Klebsiella pneumoniae (TEM-33(2br); CTX-M-15; IMP-1)) was “Y (MIC of 1 μg/mL to 10 μg/mL)”, the MIC (strain KP1174 Klebsiella pneumoniae (CTX-M-14; IMP-1)) was “Z (MIC of greater than 10 μg/mL)” and the MIC (strain KP1175 Klebsiella pneumoniae (SHV-OSBL(2b); VIM-1)) was “Z (MIC of greater than 10 μg/mL)”. For the same molecule, the MIC (strain KP1177 Klebsiella pneumoniae (SHV-OSBL(2b), TEM-OSBL(2b); CTX-M-15; NDM-1)) was “Z (MIC of greater than 10 μg/mL)”, the MIC (strain KP1178 Klebsiella pneumoniae (SHV-OSBL(2b;) TEM-OSBL(2b); CTX-M-15; NDM-1)) was “Z (MIC of greater than 10 μg/mL)” and the MIC (strain KP1179 Klebsiella pneumoniae (SHV-12(2be), TEM-OSBL(2b); CTX-M-15; NDM-7)) was “Z (MIC of greater than 10 μg/mL)”. For the same molecule, the MIC (strain KP1180 Klebsiella pneumoniae (SHV-OSBL(2b), TEM-OSBL(2b); CTX-M-15; DHA-1; IMP-26)) was “Y (MIC of 1 μg/mL to 10 μg/mL)”, the MIC (strain KP1181 Klebsiella pneumoniae (SHV-OSBL(2b); CTX-M-15; IMP-26)) was “Y (MIC of 1 μg/mL to 10 μg/mL)” and the MIC (strain KP1183 Klebsiella pneumoniae (SHV-OSBL(2b), TEM-OSBL(2b); CTX-M-15; NDM-1)) was “Z (MIC of greater than 10 μg/mL)”. The MIC (strain KP1184 Klebsiella pneumoniae (SHV-OSBL(2b); IMP-1)) was “Y (MIC of 1 μg/mL to 10 μg/mL)”, the MIC (strain KP1185 Klebsiella pneumoniae (SHV-OSBL(2b), TEM-OSBL(2b); IMP-4)) was “Z (MIC of greater than 10 μg/mL)” and the MIC (strain KP1186 Klebsiella pneumoniae (CTX-M-15; NDM-1)) was “Z (MIC of greater than 10 μg/mL)”. For the same molecule, the MIC (strain KP1187 Klebsiella pneumoniae (SHV-55(2be), TEM-OSBL(2b); CTX-M-15; NDM-1)) was “Z (MIC of greater than 10 μg/mL)”, the MIC (strain KP1188 Klebsiella pneumoniae (SHV-OSBL(2b); CTX-M-15; NDM-1)) was “Z (MIC of greater than 10 μg/mL)” and the MIC (strain KP1189 Klebsiella pneumoniae (TEM-OSBL(2b); CTX-M-15; CTX-M-27; NDM-1)) was “Z (MIC of greater than 10 μg/mL)”. The MIC (strain KPM1123 Klebsiella pneumoniae (KPC-2 TEM SHV)) was “Y (MIC of 1 μg/mL to 10 μg/mL)”, the MIC (strain KPM1202 Klebsiella pneumoniae (KPC SHV TEM)) was “Y (MIC of 1 μg/mL to 10 μg/mL)” and the MIC (strain KPM1203 Klebsiella pneumoniae (KPC SHV TEM)) was “Y (MIC of 1 μg/mL to 10 μg/mL)”. For the same molecule, the MIC (strain KPM1344 Klebsiella pneumoniae (VIM-1)) was “Y (MIC of 1 μg/mL to 10 μg/mL)”, the MIC (strain KPM1345 Klebsiella pneumoniae (VIM-1 SHV)) was “Z (MIC of greater than 10 μg/mL)” and the MIC (strain KPM1347 Klebsiella pneumoniae (NDM-1 SHV CTX-M-15)) was “Z (MIC of greater than 10 μg/mL)”. For the same molecule, the MIC (strain KX1017 Klebsiella oxytoca (KPC-2, OXA-2, SHV-30)) was “Y (MIC of 1 μg/mL to 10 μg/mL)”, the MIC (strain KX1018 Klebsiella oxytoca (KPC-2, SHV-40, OXY-1)) was “Y (MIC of 1 μg/mL to 10 μg/mL)” and the MIC (strain KX1019 Klebsiella oxytoca (KPC-2, OXA-2)) was “Y (MIC of 1 μg/mL to 10 μg/mL)”. For the same molecule, the MIC (strain PM1024 Proteus mirabilis (TEM-1(2b); CMY-16; VIM-1)) was “Z (MIC of greater than 10 μg/mL)”, the MIC (strain PM1026 Proteus mirabilis (DHA-1; IMP-26)) was “Z (MIC of greater than 10 μg/mL)” and the MIC (strain PM1027 Proteus mirabilis (VIM-5)) was “Y (MIC of 1 μg/mL to 10 μg/mL)”. For the same molecule, the MIC (strain SM1023 Serratia marcescens (VIM-4)) was “Z (MIC of greater than 10 μg/mL)”.
